From patent US20130165368A1, “ANTIMICROBIAL COMPOUNDS” (priority 2010, published 2013)
In brackets after ≈: the same amount, converted by molar mass. Where two headings read alike, the source gives them in different places.

What was measured:
Assay type in all cases: cell-based
[1] = system: Staphylococcus epidermidis; experiment: MIC agar dilution, micro-organism 14 (11047); conditions: Staphylococcus epidermidis 11047, read-out: MIC
Experimental: (§1) Throughout the period of testing the microbial strains were subcultured and incubated for 18-20 hours at 37° C. on a weekly basis. Horse blood agar plates were used to sustain the micro-organisms both prior to and throughout testing. The alkoxylated alkanols listed in Table II below were obtained (these are obtainable from Sigma-Aldrich Company Ltd, Dorset, England), each having a GC purity of at least 97%.
(§2) Molar equivalent concentrations were used to allow comparison between compounds of differing molecular mass. Due to weighing difficulties, any compound in solid form was melted in a water bath prior to dilution. To make ten-times strength concentrations, which takes into account agar dilution, 0.0352 mmol of each compound was weighed into plastic universal bottles and 4 mL of sterile distilled water (SDW) was added. To produce a homogenous emulsion the universals were vortexed; once achieved the emulsions were serial diluted by adding 2 mL to 2 mL of SDW.
(§3) Myristyl alcohol and lauryl alcohol were re-weighed and dissolved in 25 μL of the polar solvent 1-methyl-2-pyrrolidone (M6762; Sigma-Aldrich) in sterile glass universals due to an inability to achieve an even suspension. To maintain an even emulsion in the presence of SDW 37.5 μL of the non-ionic detergent Tween 20 (P1379, Sigma-Aldrich) was also added. 3.9375 mL of SDW was added to these, to create a 4 mL volume; they were vortexed and diluted as before.
(§4) For every 100 mL of Isosensitest agar (IST) (CM0471; Oxoid, Basingstoke, England), 3.1 g of the IST powder was added to 100 mL SDW (as per manufacturer's instructions) and sterilised for 15 minutes at 121° C. Once sterilised, the molten agar was cooled to 50° C. in a water-bath. Subsequently 4.8 g of CCEY powder (BC2160; Bioconnections, Wetherby, England), also known as Brazier's medium, was added to 100 mL SDW for every 100 mL of agar needed. This was then sterilised for 15 minutes at 121° C. Once sterilised the molten agar was cooled to 50° C. in a water-bath and 4 mL of egg-yolk emulsion (S2073; TCS Biosciences Ltd, Buckingham, United Kingdom) and 1 mL of lysed defibrinated horse blood (HB035; TCS Biosciences Ltd, Buckingham, United Kingdom) were also added for every 100 mL needed. Horse blood lysis is achieved by dilution to half concentration with SDW; when fully lysed the mixture will turn dark red in colour.
(§5) 18 mL agar was added to each universal and then poured into sterile Petri dishes. This step creates a 1/10 dilution resulting in agar plates of the required strength. Control plates for each set of strains were created by adding 18 mL of agar to 2 mL of SDW.
(§6) Suspensions of each bacterial species were prepared with a density equal to that of a 0.5 McFarland standard using a densitometer. All suspensions were made using sterile distilled water and fresh 18-20 hour cultures. As a 0.5 McFarland standard contains 1.5×10^8 CFU/mL and the multipoint inoculators applies 1 μL spots of liquid, each bacterial suspension was diluted 1/15 (20 μL suspension to 280 μL sterile distilled water).
(§7) Bacterial suspensions were prepared from fresh 18-24 hour cultures as previously described. 1 μL of each strain was inoculated onto all 100 agar plates containing a different chemical concentration and the 2 control plates. This was done using a multipoint inoculator which inoculates 20 strains per plate. All plates were incubated for 22 hours at 37° C. in aerobic conditions.
(§8) Each plate was examined for bacterial growth after 22 and 48 hours, with each being incubated in between examinations. A positive result was recorded as growth of ≧10 colonies. A negative result was recorded as growth of <10 colonies as this is equivalent to 99.9% inhibition. The lowest concentration of chemical that inhibited growth was recorded as the MIC. The results are recorded in Table IV below, where the numbers are quoted in mmol/L. […]

Pseudomonas aeruginosa = experiment: MIC agar dilution, micro-organism 7 (10662); conditions: Pseudomonas aeruginosa 10662; 48 hrs; read-out: MIC
Experimental: as §1, §2, §3, §4, §5, §6, §7
(§9) Each plate was examined for bacterial growth after 22 and 48 hours, with each being incubated in between examinations. A positive result was recorded as growth of ≧10 colonies. A negative result was recorded as growth of <10 colonies as this is equivalent to 99.9% inhibition. The lowest concentration of chemical that inhibited growth was recorded as the MIC. The results are recorded in Table IV below, where the numbers are quoted in mmol/L.
(§10) Further experiments have also been conducted to determine the MIC of a number of other compositions as follows. […]

Listeria monocytogenes = experiment: MIC agar dilution, micro-organism 15 (11994); conditions: Listeria monocytogenes 11994, read-out: MIC
Experimental: as §1, §2, §3, §4, §5, §6, §7, §8

Salmonella typhimurium = experiment: MIC agar dilution, micro-organism 6 (74); conditions: Salmonella enterica; Salmonella typhimurium 74; 48 hrs; read-out: MIC
Experimental: as §1, §2, §3, §4, §5, §6, §7, §9, §10

Yersinia enterocolitica = experiment: MIC agar dilution, micro-organism 8 (11176); conditions: Yersinia enterocolitica 11176; 48 hrs; read-out: MIC
Experimental: as §1, §2, §3, §4, §5, §6, §7, §9, §10

Bacillus subtilis = experiment: MIC agar dilution, micro-organism 18 (9372); conditions: Bacillus subtilis 9372, read-out: MIC
Experimental: as §1, §2, §3, §4, §5, §6, §7, §8

Staphylococcus aureus = experiment: MIC agar dilution, micro-organism 13 (6571); conditions: Staphylococcus aureus, Staphylococcus aureus 6571, read-out: MIC
Experimental: as §1, §2, §3, §4, §5, §6, §7, §8

Escherichia coli = experiment: MIC agar dilution, micro-organism 1 (10418); conditions: Escherichia coli 10418, read-out: MIC
Experimental: as §1, §2, §3, §4, §5, §6, §7, §8

Providencia rettgeri = experiment: MIC agar dilution, micro-organism 3 (7475); conditions: Providencia rettgeri 7475, read-out: MIC
Experimental: as §1, §2, §3, §4, §5, §6, §7, §8

Burkholderia cepacia = experiment: MIC agar dilution, micro-organism 9 (1222); conditions: Burkholderia cepacia 1222; 48 hrs; read-out: MIC
Experimental: as §1, §2, §3, §4, §5, §6, §7, §9, §10

Steptococcus pyogenes = experiment: MIC agar dilution, micro-organism 11 (8306); conditions: Steptococcus pyogenes 8306, read-out: MIC
Experimental: as §1, §2, §3, §4, §5, §6, §7, §8

Enterococcus faecalis = experiment: MIC agar dilution, micro-organism 17 (775); conditions: Enterococcus faecalis 775, read-out: MIC
Experimental: as §1, §2, §3, §4, §5, §6, §7, §8

Acinetobacter baumannii = experiment: MIC agar dilution, micro-organism 10 (19606); conditions: Acinetobacter baumannii 19606; 48 hrs; read-out: MIC
Experimental: as §1, §2, §3, §4, §5, §6, §7, §9, §10

Candida albicans = experiment: MIC agar dilution, micro-organism 19 (90028); conditions: Candida albicans 90028, read-out: MIC
Experimental: as §1, §2, §3, §4, §5, §6, §7, §8

Enterobacter cloacae = experiment: MIC agar dilution, micro-organism 4 (11936); conditions: Enterobacter cloacae 11936; 48 hrs; read-out: MIC
Experimental: as §1, §2, §3, §4, §5, §6, §7, §9, §10

Enterococcus faecium = experiment: MIC agar dilution, micro-organism 16 (7171); conditions: Enterococcus faecium 7171, read-out: MIC
Experimental: as §1, §2, §3, §4, §5, §6, §7, §8

[2] = system: Staphylococcus aureus (MRSA); experiment: MIC agar dilution, micro-organism 12 (11939); conditions: Staphylococcus aureus, MRSA, Staphylococcus aureus (MRSA) 11939, read-out: MIC
Experimental: as §1, §2, §3, §4, §5, §6, §7, §8

Serratia marcescens = experiment: MIC agar dilution, micro-organism 5 (10211); conditions: Serratia marcescens 10211; 48 hrs; read-out: MIC
Experimental: as §1, §2, §3, §4, §5, §6, §7, §9, §10

Klebsiella pneumoniae = experiment: MIC agar dilution, micro-organism 2 (9528); conditions: Klebsiella pneumoniae 9528; 48 hrs; read-out: MIC
Experimental: as §1, §2, §3, §4, §5, §6, §7, §9, §10

Candida glabrata = experiment: MIC agar dilution, micro-organism 20 (3943); conditions: Nakaseomyces glabratus, Candida glabrata 3943, read-out: MIC
Experimental: as §1, §2, §3, §4, §5, §6, §7, §8

[3] = system: Gram negative bacteria, Gram positive bacteria and pathogenic yeasts; experiment: MIC agar dilution, summary statements over the micro-organisms tested (Tables I, IX); conditions: over the micro-organisms tested or some of them; read-out: MIC
Description: For a better understanding, the present invention will now be more particularly described, by way of non-limiting example only, as follows. The micro-organisms shown in Table I overleaf were acquired from the National Collection of Type Cultures (NCTC), Colindale, United Kingdom; the American Type Culture Collection (ATCC), Manassas, United States and the National Collection of Pathogenic Fungi (NCPF), Colindale, United Kingdom. They include Gram negative bacteria, Gram positive bacteria and pathogenic yeasts.
as §1, §2, §3, §4, §5, §6
Bacterial suspensions were prepared from fresh 18-24 hour cultures as previously described. 1 μL of each strain was inoculated onto all 100 agar plates containing a different chemical concentration and the 2 control plates. This was done using a multipoint inoculator which inoculates 20 strains per plate. All plates were incubated for 22 hours at 37° C. in aerobic conditions. […]

Compound	MIC ([1]; 48 hrs)	MIC (Listeria monocytogenes; 48 hrs)	MIC (Bacillus subtilis; 48 hrs)	MIC (Staphylococcus aureus; 48 h, 48 hrs)	MIC (Escherichia coli; 48 hrs)	MIC (Providencia rettgeri; 48 hrs)	MIC (Steptococcus pyogenes; 48 h, 48 hrs)	MIC (Enterococcus faecalis; 48 hrs)	MIC (Candida albicans; 48 hrs)	MIC (Enterococcus faecium; 48 hrs)	MIC ([2]; 48 h, 48 hrs)	MIC (Candida glabrata; 48 h, 48 hrs)	MIC ([1]; 22 hrs)	MIC (Listeria monocytogenes; 22 hrs)	MIC (Bacillus subtilis; 22 hrs)	MIC (Staphylococcus aureus; 22 h, 22 hrs)	MIC [3]	MIC (Escherichia coli; 22 hrs)	MIC (Providencia rettgeri; 22 hrs)	MIC (Steptococcus pyogenes; 22 h, 22 hrs)	other results
CCCCCCCCCCCCOCC(C)O (racemic) [PG1, 1-methyl-3-oxapentadecanol]	> 880 µM	> 880 µM	> 880 µM	> 880 µM	> 880 µM	880 µM (≈ 215 µg/mL)	> 880 µM	> 880 µM	> 880 µM	> 880 µM	880 µM (≈ 215 µg/mL)	> 880 µM									MIC (Pseudomonas aeruginosa): > 880 µM; MIC (Salmonella typhimurium): > 880 µM; MIC (Yersinia enterocolitica): > 880 µM; MIC (Burkholderia cepacia): > 880 µM; MIC (Acinetobacter baumannii): > 880 µM; MIC (Enterobacter cloacae): > 880 µM; MIC (Serratia marcescens): > 880 µM; MIC (Klebsiella pneumoniae): > 880 µM
CCCCCCCCCCCCCCOCCOCCOCCOCCO [M4, Tetraethylene Glycol Monotetradecyl Ether]	110 µM (≈ 43 µg/mL)	> 880 µM	220 µM (≈ 85.9 µg/mL)	55 µM (≈ 21.5 µg/mL)	> 880 µM	> 880 µM	27.5 µM (≈ 10.7 µg/mL)	220 µM (≈ 85.9 µg/mL)	> 880 µM	> 880 µM	110 µM (≈ 43 µg/mL)	> 880 µM	55 µM (≈ 21.5 µg/mL)	440 µM (≈ 172 µg/mL)	220 µM (≈ 85.9 µg/mL)	55 µM (≈ 21.5 µg/mL)	< 220 µM	> 880 µM	> 880 µM	27.5 µM (≈ 10.7 µg/mL)	MIC (Enterococcus faecalis; 22 hrs): 220 µM (≈ 85.9 µg/mL); MIC (Candida albicans; 22 hrs): > 880 µM; MIC (Enterococcus faecium; 22 hrs): > 880 µM; MIC ([2]; 22 h, 22 hrs): 110 µM (≈ 43 µg/mL); MIC (Candida glabrata; 22 h, 22 hrs): > 880 µM
CCCCCCCCCCOCCO [D1, Ethylene Glycol Monodecyl Ether, reference compound]	> 880 µM	> 880 µM	> 880 µM	> 880 µM	> 880 µM	> 880 µM	> 880 µM	> 880 µM	> 880 µM	> 880 µM	> 880 µM	> 880 µM	> 880 µM	> 880 µM	> 880 µM	> 880 µM	> 880 µM	> 880 µM	> 880 µM	> 880 µM	MIC (Enterococcus faecalis; 22 hrs): > 880 µM; MIC (Candida albicans; 22 hrs): > 880 µM; MIC (Enterococcus faecium; 22 hrs): > 880 µM; MIC ([2]; 22 h, 22 hrs): > 880 µM; MIC (Candida glabrata; 22 h, 22 hrs): > 880 µM
CCCCCCCCCCO [D0, 1-Decanol, reference compound]	> 880 µM	> 880 µM	> 880 µM	> 880 µM	> 880 µM	> 880 µM	> 880 µM	> 880 µM	> 880 µM	> 880 µM	> 880 µM	> 880 µM	> 880 µM	> 880 µM	> 880 µM	> 880 µM	> 880 µM	> 880 µM	> 880 µM	> 880 µM	MIC (Enterococcus faecalis; 22 hrs): > 880 µM; MIC (Candida albicans; 22 hrs): > 880 µM; MIC (Enterococcus faecium; 22 hrs): > 880 µM; MIC ([2]; 22 h, 22 hrs): > 880 µM; MIC (Candida glabrata; 22 h, 22 hrs): > 880 µM
